“And” between values parts separate entries of the source, which are not always exact repeats. Equal entries are not always repeated. Inconclusive results and toxic doses are left out. How the source made its calls: active means survival T/C of 150% or more; inactive means T/C below 125% in these data.
Tested on: C57BL/6 mice, intracerebral ependymoblastoma, median survival T/C
Test: NCI In Vivo Anticancer Drug Screen. Data for tumor model Ependymoblastoma (intracerebral) in C57BL/6 mice
Settings: endpoint: median survival time, higher = longer survival
Protocol: The antitumor activity of compounds was measured in mice bearing transplantable tumors. Survival or tumor size were measured and the results are expressed as the measurement made in the treated group (T) divided by the measurement made in the vehicle treated control group (C). The tumor model used in this assay is Ependymoblastoma (intracerebral) in C57BL/6 mice

[1] = dose: 1.0 mg/kg/injection, schedule: Q01DX005 (ip), vehicle: saline with Tween-80
[2] = dose: 2.0 mg/kg/injection, schedule: Q01DX005 (ip), vehicle: saline with Tween-80
[3] = dose: 4.0 mg/kg/injection, schedule: Q01DX005 (ip), vehicle: saline with Tween-80
[4] = dose: 8.0 mg/kg/injection, schedule: Q01DX005 (ip), vehicle: saline with Tween-80
[5] = dose: 100.0 mg/kg/injection, schedule: Q01DX005 (ip), vehicle: saline

Measured: T/C

O=C1c2ccccc2C(=O)c2c(NCCNCCO)ccc(NCCNCCO)c21
inactive: dose: 0.5 mg/kg/injection, schedule: Q01DX005 (ip), vehicle: Klucel (hydroxypropylcellulose) (HPC) 104 % of control and 110 % of control | dose: 0.5 mg/kg/injection, schedule: Q01DX005 (ip), vehicle: water 91 % of control and 103 % of control | dose: 1.0 mg/kg/injection, schedule: Q01DX005 (ip), vehicle: Klucel (hydroxypropylcellulose) (HPC) 102 % of control and 107 % of control | [1] 94 % of control | dose: 1.0 mg/kg/injection, schedule: Q01DX005 (ip), vehicle: saline 94 % of control | dose: 1.0 mg/kg/injection, schedule: Q01DX005 (ip), vehicle: water 105 % of control | dose: 1.0 mg/kg/injection, schedule: Q04DX003 (ip), vehicle: Klucel (hydroxypropylcellulose) (HPC) 113 % of control | dose: 1.0 mg/kg/injection, schedule: Q04DX003 (ip), vehicle: water 103 % of control | dose: 2.0 mg/kg/injection, schedule: Q01DX005 (ip), vehicle: Klucel (hydroxypropylcellulose) (HPC) 97 % of control and 108 % of control | [2] 100 % of control | dose: 2.0 mg/kg/injection, schedule: Q01DX005 (ip), vehicle: saline 108 % of control | dose: 2.0 mg/kg/injection, schedule: Q01DX005 (ip), vehicle: water 94 % of control and 102 % of control | dose: 2.0 mg/kg/injection, schedule: Q04DX003 (ip), vehicle: Klucel (hydroxypropylcellulose) (HPC) 103 % of control | dose: 2.0 mg/kg/injection, schedule: Q04DX003 (ip), vehicle: water 110 % of control | dose: 4.0 mg/kg/injection, schedule: Q01DX001 (ip), vehicle: Klucel (hydroxypropylcellulose) (HPC) 87 % of control | dose: 4.0 mg/kg/injection, schedule: Q01DX001 (ip), vehicle: water 107 % of control | dose: 4.0 mg/kg/injection, schedule: Q01DX005 (ip), vehicle: Klucel (hydroxypropylcellulose) (HPC) 98 % of control and 104 % of control | dose: 4.0 mg/kg/injection, schedule: Q01DX005 (ip), vehicle: other 105 % of control | [3] 104 % of control and 109 % of control | dose: 4.0 mg/kg/injection, schedule: Q01DX005 (ip), vehicle: saline 100 % of control | dose: 4.0 mg/kg/injection, schedule: Q01DX005 (ip), vehicle: water 98 % of control and 105 % of control | dose: 4.0 mg/kg/injection, schedule: Q04DX003 (ip), vehicle: Klucel (hydroxypropylcellulose) (HPC) 104 % of control | dose: 4.0 mg/kg/injection, schedule: Q04DX003 (ip), vehicle: water 96 % of control | dose: 8.0 mg/kg/injection, schedule: Q01DX001 (ip), vehicle: Klucel (hydroxypropylcellulose) (HPC) 95 % of control | dose: 8.0 mg/kg/injection, schedule: Q01DX001 (ip), vehicle: water 101 % of control | dose: 8.0 mg/kg/injection, schedule: Q01DX005 (ip), vehicle: Klucel (hydroxypropylcellulose) (HPC) 104 % of control and 107 % of control | dose: 8.0 mg/kg/injection, schedule: Q01DX005 (ip), vehicle: other 110 % of control | [4] 115 % of control | dose: 8.0 mg/kg/injection, schedule: Q01DX005 (ip), vehicle: water 106 % of control and 108 % of control | dose: 8.0 mg/kg/injection, schedule: Q04DX003 (ip), vehicle: Klucel (hydroxypropylcellulose) (HPC) 108 % of control | dose: 8.0 mg/kg/injection, schedule: Q04DX003 (ip), vehicle: water 119 % of control | dose: 16.0 mg/kg/injection, schedule: Q01DX001 (ip), vehicle: Klucel (hydroxypropylcellulose) (HPC) 98 % of control | dose: 16.0 mg/kg/injection, schedule: Q01DX001 (ip), vehicle: water 107 % of control | dose: 16.0 mg/kg/injection, schedule: Q01DX005 (ip), vehicle: Klucel (hydroxypropylcellulose) (HPC) 110 % of control and 112 % of control | dose: 16.0 mg/kg/injection, schedule: Q01DX005 (ip), vehicle: water 105 % of control | dose: 16.0 mg/kg/injection, schedule: Q04DX003 (ip), vehicle: Klucel (hydroxypropylcellulose) (HPC) 109 % of control | dose: 16.0 mg/kg/injection, schedule: Q04DX003 (ip), vehicle: water 114 % of control | dose: 32.0 mg/kg/injection, schedule: Q01DX001 (ip), vehicle: Klucel (hydroxypropylcellulose) (HPC) 112 % of control | dose: 32.0 mg/kg/injection, schedule: Q01DX001 (ip), vehicle: water 112 % of control | dose: 32.0 mg/kg/injection, schedule: Q01DX005 (ip), vehicle: Klucel (hydroxypropylcellulose) (HPC) 93 % of control and 117 % of control | dose: 32.0 mg/kg/injection, schedule: Q04DX003 (ip), vehicle: Klucel (hydroxypropylcellulose) (HPC) 103 % of control | dose: 32.0 mg/kg/injection, schedule: Q04DX003 (ip), vehicle: water 109 % of control | dose: 64.0 mg/kg/injection, schedule: Q01DX001 (ip), vehicle: Klucel (hydroxypropylcellulose) (HPC) 105 % of control | dose: 64.0 mg/kg/injection, schedule: Q01DX001 (ip), vehicle: water 115 % of control | dose: 64.0 mg/kg/injection, schedule: Q04DX003 (ip), vehicle: Klucel (hydroxypropylcellulose) (HPC) 99 % of control | dose: 128.0 mg/kg/injection, schedule: Q01DX001 (ip), vehicle: Klucel (hydroxypropylcellulose) (HPC) 98 % of control | dose: 256.0 mg/kg/injection, schedule: Q01DX001 (ip), vehicle: Klucel (hydroxypropylcellulose) (HPC) 104 % of control

CS(C)=O
inactive: dose: 1.5 grams/kg/injection, schedule: Q01DX005 (ip), vehicle: saline 103 % of control | dose: 6.0 grams/kg/injection, schedule: Q01DX005 (ip), vehicle: saline 103 % of control

O=c1ccc2ccccc2o1
inactive: dose: 90.0 mg/kg/injection, schedule: Q01DX005 (ip), vehicle: saline with Tween-80 101 % of control | dose: 180.0 mg/kg/injection, schedule: Q01DX005 (ip), vehicle: saline with Tween-80 86 % of control | dose: 720.0 mg/kg/injection, schedule: Q01DX005 (ip), vehicle: saline with Tween-80 97 % of control

N[C@H](C(=O)O)[C@@H]1CC(Cl)=NO1
inactive: [1] 93 % of control | [2] 94 % of control | [3] 113 % of control | [4] 108 % of control | dose: 8.0 mg/kg/injection, schedule: Q12HX002 (ip), vehicle: saline 118 % of control | dose: 16.0 mg/kg/injection, schedule: Q01DX001 (ip), vehicle: saline 100 % of control and 114 % of control | dose: 16.0 mg/kg/injection, schedule: Q12HX002 (ip), vehicle: saline 97 % of control | dose: 32.0 mg/kg/injection, schedule: Q01DX001 (ip), vehicle: saline 101 % of control | dose: 32.0 mg/kg/injection, schedule: Q12HX002 (ip), vehicle: saline 113 % of control | dose: 64.0 mg/kg/injection, schedule: Q01DX001 (ip), vehicle: saline 103 % of control and 113 % of control | dose: 64.0 mg/kg/injection, schedule: Q01DX001 (oral), vehicle: saline 93 % of control and 105 % of control | dose: 64.0 mg/kg/injection, schedule: Q12HX002 (ip), vehicle: saline 116 % of control | dose: 128.0 mg/kg/injection, schedule: Q01DX001 (ip), vehicle: saline 106 % of control and 108 % of control | dose: 128.0 mg/kg/injection, schedule: Q01DX001 (oral), vehicle: saline 98 % of control and 106 % of control | dose: 128.0 mg/kg/injection, schedule: Q12HX002 (ip), vehicle: saline 108 % of control | dose: 256.0 mg/kg/injection, schedule: Q01DX001 (ip), vehicle: saline 106 % of control and 108 % of control | dose: 256.0 mg/kg/injection, schedule: Q01DX001 (oral), vehicle: saline 102 % of control and 117 % of control | dose: 512.0 mg/kg/injection, schedule: Q01DX001 (oral), vehicle: saline 106 % of control and 121 % of control | dose: 1024.0 mg/kg/injection, schedule: Q01DX001 (oral), vehicle: saline 110 % of control and 115 % of control

Nc1ncnc2c1ncn2C1OC(COP(=O)(O)O)C(O)C1O (stereo not given)
inactive: [5] 104 % of control | dose: 200.0 mg/kg/injection, schedule: Q01DX005 (ip), vehicle: saline 100 % of control | dose: 800.0 mg/kg/injection, schedule: Q01DX005 (ip), vehicle: saline 119 % of control

CNc1nc(N(C)C)nc(N(C)C)n1
inactive: dose: 3.12 mg/kg/injection, schedule: Q01DX005 (ip), vehicle: saline 103 % of control | dose: 6.25 mg/kg/injection, schedule: Q01DX005 (ip), vehicle: saline 96 % of control | dose: 12.5 mg/kg/injection, schedule: Q01DX005 (ip), vehicle: saline 97 % of control | dose: 25.0 mg/kg/injection, schedule: Q01DX005 (ip), vehicle: saline 108 % of control | dose: 50.0 mg/kg/injection, schedule: Q01DX005 (ip), vehicle: saline 100 % of control | [5] 113 % of control

From PubChem BioAssay AID222 (DTP/NCI, 2004)
